From patent publication US20220227796A1, “EGFR INHIBITORS, COMPOSITIONS AND METHODS THERE OF” (Betta Pharmaceuticals Co., Ltd., priority 2019, published 2022)
Where a name gives a salt, the structure may show the parent alone.

What was measured:
[1] = molecular target: EGFR Δ19del/T790M/C797S (Homo sapiens, UniProt P00533, T790M/C797S, form not given); test: Kinase assay (mobility shift) for EGFR Δ19del/T790M/C797S; format: biochemical; settings: read-out: EGFR Δ 19del/T790M/C797S IC50
Method: (§1) Enzyme reaction protocol are as followed:
(§2) 1. Preparing 1* Kinase buffer as followed.
(§3) 2. Preparing Compound Concentration Gradient: Compounds were tested at a concentration of 300 nM, diluted to 100-fold final concentration in 100% DMSO solution in 96-well plates, and compounds were diluted 3 times with Precision, 10 concentrations. Each concentration of the compound was then further diluted to a 5-fold final concentration of the intermediate dilution solution using 1* Kinase buffer.
(§4) 3. 5 μL of each of the prepared intermediate dilution compounds was separately added to the compound wells of the 384-well plate, and each concentration was tested for duplicate wells; 5 μL of 5% DMSO was added to the negative control wells and the positive control wells, respectively.
(§5) 4. 2.5-fold final concentration of the kinase solution was prepared using 1*Kinase buffer.
(§6) 6. Centrifuge at 1000 rpm for 30 seconds, shake the reaction plate and incubate for 10 minutes at room temperature.
(§7) 8. 10 μL of a 2.5-fold final concentration of a mixed solution of ATP and a substrate was added to initiate the reaction.
(§8) 9. Centrifuge the 384-well plate at 1000 rpm for 30 seconds, mix by shaking, and incubate at room temperature for the corresponding time.
(§9) 10. Add 30 μL of the stop solution to stop the kinase reaction, centrifuge at 1000 rpm for 30 seconds, and mix by shaking.
(§10) 11. Read the conversion rate with Caliper EZ Reader.
(§11) Convert conversion values to inhibition values:
(§12) Percent inhibition=(max−conversion % sample)/(max−min)*100.
(§13) “max” stands for the mean value of the positive control well ratio; “min” stands for the mean value of the negative control well; conversion % sample: sample conversion reading.
(§14) Fit the data in log(inhibitor) vs. response Variable slope of GraphPad Prism 5 to obtain IC50 values.
(§15) Equation used is: Y=Bottom+(Top−Bottom)/(1+(IC50/X)*HillSlope)

[2] = molecular target: T1, Ba/F3-L858R/T790M/C797S (Homo sapiens, UniProt P00533, T790M/C797S/L858R, cells depend on it); test: Ba/F3-L858R/T790M/C797S cells proliferation assay; format: cell-based; settings: cell proliferation, 72 h, CellTiter Glo; class symbols; read-out: BaF3 L858R/T790M/C797S IC50
T1 construct: BaF3 L858R/T790M/C797S IC50; other: cell proliferation, 72 h, CellTiter Glo; class symbols; numeric values
Method: (§16) a) The medium was preheated in a 37 water bath in advance.
(§17) b) Remove the cryogenic vials from the liquid nitrogen tank, quickly put it into a 37° C. water bath, and completely melt it in 1 min.
(§18) c) Transfer the cell suspension to a 15 mL centrifuge tube containing 8 mL medium, centrifuge 1000 rpm, 5 min,
(§19) d) Discard the supernatant, resuspend the cells in 1 mL medium, and transfer to a 75 cm^2 flask containing 15 mL medium, culture the cells in an incubator at 37° C., 5% CO2.
(§20) a) The medium was preheated in a 37° C.; water bath in advance.
(§21) b) Collect cell to a 15 mL centrifuged tube, centrifuge at 1000 rpm for 5 min. Discard the supernatant, count, and make the cell density at 1×10^4 cells/mL, then place it in a 37° C., 5% CO2 incubator.
(§22) b) The above compound solution was diluted 1:20 times with culture medium to prepare a 10 fold working solution;
(§23) a) Take cells in log phase growth, centrifuge at 1000 rpm for 5 min, then resuspend the cells with culture medium, then count cells;
(§24) b) Cells were seeded to 96-well cell culture plate with density at 2000 cells/well;
(§25) The blank control well was a culture medium (0.5% DMSO);
(§26) b) The cells were incubated for an additional 72 h in the incubator.
(§27) a) Remove the 96-well cell culture plate and add 50 μl of CTG reagent (CellTiter Glo kit, promega, Cat #G7573).
(§28) b) Plate was shaked for 2 min and then let it cool for 10 min at room temperature.
(§29) c) The Luminescence signal value was read using a PerkinElmer reader.
(§30) Experimental Data Analysis
(§31) Data were analyzed using GraphPad Prism 6.0 software to obtain a fitted curve of compound activity.
(§32) Y=Bottom+(Top−Bottom)/(1+10^((Log IC50−X)*Hill Slope));
(§33) The cells proliferation assay results are expressed with IC50, shown as Table 2.

[3] = molecular target: Ba/F3-Δ19del/T790M/C797S (Homo sapiens, UniProt P00533, T790M/C797S, cells depend on it, form not given); test: Ba/F3-Δ19del/T790M/C797S cells proliferation assay; format: cell-based; settings: cell proliferation, 72 h, CellTiter Glo; class symbols; read-out: BaF3 Δ 19del/T790M/C797S IC50
Method: as §16, §17, §18, §19, §20, §21, §22, §23, §24, §25, §26, §27, §28, §29, §30, §31, §32, §33

[4] = tested on: H1975(L858R/T790M); test: H1975 cells proliferation assay; format: cell-based; settings: Homo sapiens, NCI-H1975; cell proliferation, 72 h, CellTiter Glo; class symbols; read-out: H1975 IC50
Method: (§34) Test 3 H1975 and HCC827 Cells Proliferation Assay
(§35) a) The medium was preheated in a 37° C. water bath in advance.
as §17
(§36) c) Transfer the cell suspension to a 15 mL centrifuge tube containing 8 mL medium, centrifuge 1000 rpm, 5 min.
as §19, §21, §22, §23
(§37) b) Cells were seeded to 96-well cell culture plate with density at 2000 cells/well (suitable for H1975 cell) and at 2500 cells/well (suitable for HCC827 cell);
as §25, §26, §27, §28, §29, §30, §31
(§38) Y=Bottom+(Top−Bottom)/(1+10^((Log IC50−X)*HillSlope));
as §33

[5] = tested on: HCC827(Δ19del); test: HCC827 cells proliferation assay; format: cell-based; settings: Homo sapiens, HCC827; cell proliferation, 72 h, CellTiter Glo; class symbols; read-out: HCC827 IC50
Method: as §34, §35, §17, §36, §19, §21, §22, §23, §37, §25, §26, §27, §28, §29, §30, §31, §38, §33

[6] = molecular target: EGFR L858R (Homo sapiens, UniProt P00533, L858R); test: Kinase assay (mobility shift) for EGFR L858R; format: biochemical
Method: as §1, §2, §3, §4, §5, §6, §7, §8, §9, §10, §11, §12, §13, §14, §15

[7] = molecular target: EGFR T790M/L858R (Homo sapiens, UniProt P00533, L858R/T790M); test: Kinase assay (mobility shift) for EGFR T790M/L858R; format: biochemical
Method: as §1, §2, §3, §4, §5, §6, §7, §8, §9, §10, §11, §12, §13, §14, §15

Chain of EGFR L858R (P00533 25-1210 L858R): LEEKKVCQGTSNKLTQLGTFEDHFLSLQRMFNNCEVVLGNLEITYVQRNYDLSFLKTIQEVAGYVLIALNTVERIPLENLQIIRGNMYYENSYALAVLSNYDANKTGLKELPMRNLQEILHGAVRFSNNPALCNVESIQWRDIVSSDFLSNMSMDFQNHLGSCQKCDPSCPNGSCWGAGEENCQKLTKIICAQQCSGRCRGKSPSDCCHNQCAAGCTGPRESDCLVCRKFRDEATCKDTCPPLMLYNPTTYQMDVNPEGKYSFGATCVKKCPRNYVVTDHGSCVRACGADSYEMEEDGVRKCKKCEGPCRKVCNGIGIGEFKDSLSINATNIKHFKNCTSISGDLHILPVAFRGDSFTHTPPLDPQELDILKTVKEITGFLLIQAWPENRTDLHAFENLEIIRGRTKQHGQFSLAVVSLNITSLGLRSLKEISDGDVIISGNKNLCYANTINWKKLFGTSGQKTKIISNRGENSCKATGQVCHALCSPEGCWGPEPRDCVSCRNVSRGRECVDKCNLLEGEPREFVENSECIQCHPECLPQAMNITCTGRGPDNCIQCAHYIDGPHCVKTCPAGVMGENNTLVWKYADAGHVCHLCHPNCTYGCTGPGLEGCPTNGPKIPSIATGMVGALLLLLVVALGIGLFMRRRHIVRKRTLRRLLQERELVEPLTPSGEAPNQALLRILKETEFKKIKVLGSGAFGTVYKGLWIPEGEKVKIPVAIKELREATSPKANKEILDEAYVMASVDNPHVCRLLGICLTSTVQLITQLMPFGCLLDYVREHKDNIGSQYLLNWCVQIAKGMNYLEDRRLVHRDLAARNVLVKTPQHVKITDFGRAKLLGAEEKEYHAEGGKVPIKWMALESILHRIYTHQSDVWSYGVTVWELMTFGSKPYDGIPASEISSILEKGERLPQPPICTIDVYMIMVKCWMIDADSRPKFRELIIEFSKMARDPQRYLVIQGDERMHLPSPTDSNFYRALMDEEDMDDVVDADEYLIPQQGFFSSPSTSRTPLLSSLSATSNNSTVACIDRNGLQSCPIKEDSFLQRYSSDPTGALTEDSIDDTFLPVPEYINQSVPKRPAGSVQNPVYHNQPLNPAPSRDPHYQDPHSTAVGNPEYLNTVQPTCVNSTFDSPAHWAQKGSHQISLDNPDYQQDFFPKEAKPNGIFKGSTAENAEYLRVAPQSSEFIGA
Chain of EGFR T790M/L858R (P00533 25-1210 T790M/L858R): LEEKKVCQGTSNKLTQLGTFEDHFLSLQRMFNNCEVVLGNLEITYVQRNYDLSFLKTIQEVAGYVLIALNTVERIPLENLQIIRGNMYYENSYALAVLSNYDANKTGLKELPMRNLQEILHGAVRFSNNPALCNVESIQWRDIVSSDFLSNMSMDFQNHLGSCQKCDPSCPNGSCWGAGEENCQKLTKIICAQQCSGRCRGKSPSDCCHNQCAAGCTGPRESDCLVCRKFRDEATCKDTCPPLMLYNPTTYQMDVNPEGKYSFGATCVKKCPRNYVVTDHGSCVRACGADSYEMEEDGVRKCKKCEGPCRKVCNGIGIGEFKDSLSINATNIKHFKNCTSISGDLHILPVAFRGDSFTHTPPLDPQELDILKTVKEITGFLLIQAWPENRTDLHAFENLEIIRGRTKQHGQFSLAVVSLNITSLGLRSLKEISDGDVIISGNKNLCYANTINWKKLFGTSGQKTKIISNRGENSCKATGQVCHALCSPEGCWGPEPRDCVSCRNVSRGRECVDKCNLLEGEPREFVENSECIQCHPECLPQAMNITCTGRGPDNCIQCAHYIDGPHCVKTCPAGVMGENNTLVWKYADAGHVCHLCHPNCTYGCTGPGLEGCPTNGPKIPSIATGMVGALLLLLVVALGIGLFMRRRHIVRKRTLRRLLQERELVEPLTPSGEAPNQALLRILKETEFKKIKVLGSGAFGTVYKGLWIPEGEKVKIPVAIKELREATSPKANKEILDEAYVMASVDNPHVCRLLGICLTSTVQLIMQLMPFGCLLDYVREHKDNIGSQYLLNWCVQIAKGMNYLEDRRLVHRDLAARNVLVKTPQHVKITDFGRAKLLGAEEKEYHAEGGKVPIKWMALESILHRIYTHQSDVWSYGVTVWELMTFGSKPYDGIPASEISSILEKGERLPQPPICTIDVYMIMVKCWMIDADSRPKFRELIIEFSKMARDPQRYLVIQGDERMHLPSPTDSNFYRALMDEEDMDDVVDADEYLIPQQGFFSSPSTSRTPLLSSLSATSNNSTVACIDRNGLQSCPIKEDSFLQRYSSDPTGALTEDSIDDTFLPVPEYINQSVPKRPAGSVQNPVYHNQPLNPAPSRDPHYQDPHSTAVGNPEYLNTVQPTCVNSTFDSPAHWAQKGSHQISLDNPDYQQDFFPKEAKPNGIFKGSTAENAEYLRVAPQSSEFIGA
Chain of Ba/F3-Δ19del/T790M/C797S (P00533 with tags, fused parts or gaps DEL746-750/T790M/C797S, form open): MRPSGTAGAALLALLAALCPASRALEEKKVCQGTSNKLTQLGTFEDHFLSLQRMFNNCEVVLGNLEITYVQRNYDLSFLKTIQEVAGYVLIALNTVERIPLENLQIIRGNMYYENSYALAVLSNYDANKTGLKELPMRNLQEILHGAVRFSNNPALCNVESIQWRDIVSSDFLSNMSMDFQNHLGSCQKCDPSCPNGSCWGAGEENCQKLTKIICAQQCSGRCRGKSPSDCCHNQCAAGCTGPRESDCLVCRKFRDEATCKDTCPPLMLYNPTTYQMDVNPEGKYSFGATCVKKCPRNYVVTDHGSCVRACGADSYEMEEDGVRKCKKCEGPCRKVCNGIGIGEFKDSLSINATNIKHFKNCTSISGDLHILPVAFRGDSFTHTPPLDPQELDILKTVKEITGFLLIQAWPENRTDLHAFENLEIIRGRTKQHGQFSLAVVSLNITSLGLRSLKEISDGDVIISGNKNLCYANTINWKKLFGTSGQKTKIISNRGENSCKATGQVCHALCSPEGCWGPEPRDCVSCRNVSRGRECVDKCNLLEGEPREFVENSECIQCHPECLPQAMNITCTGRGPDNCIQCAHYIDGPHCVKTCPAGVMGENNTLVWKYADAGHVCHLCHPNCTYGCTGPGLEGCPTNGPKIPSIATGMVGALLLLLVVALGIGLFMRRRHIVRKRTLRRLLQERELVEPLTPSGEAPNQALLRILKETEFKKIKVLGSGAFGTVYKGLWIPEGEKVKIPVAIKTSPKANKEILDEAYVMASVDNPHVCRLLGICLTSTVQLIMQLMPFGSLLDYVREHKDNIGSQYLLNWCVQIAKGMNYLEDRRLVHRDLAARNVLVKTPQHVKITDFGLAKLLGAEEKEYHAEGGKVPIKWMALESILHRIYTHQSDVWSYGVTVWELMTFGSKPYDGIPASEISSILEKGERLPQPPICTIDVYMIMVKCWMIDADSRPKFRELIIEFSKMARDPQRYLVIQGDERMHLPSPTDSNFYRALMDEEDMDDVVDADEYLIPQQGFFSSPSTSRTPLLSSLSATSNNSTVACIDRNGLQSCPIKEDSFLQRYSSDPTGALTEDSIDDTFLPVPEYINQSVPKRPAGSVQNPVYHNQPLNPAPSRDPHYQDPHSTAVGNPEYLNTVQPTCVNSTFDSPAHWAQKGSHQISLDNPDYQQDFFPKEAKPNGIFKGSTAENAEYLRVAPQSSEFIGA
Chain of EGFR Δ19del/T790M/C797S (P00533 with tags, fused parts or gaps DEL746-750/T790M/C797S, form open): as above

Row | SMILES | IC50 [1] | GI50 [2] | GI50 [3] | IC50 [4] | IC50 [5] | IC50 [6] | IC50 [7]
1 | CN(C)C/C=C/C(=O)Nc1cc(Nc2ncc(Cl)c(Nc3ccccc3P(C)(C)=O)n2)ccc1N1CCC2(CC1)CC(N(C)C)C2 [Compound 8, (E)-N-(5-((5-chloro-4-((2-(dimethylphosphoryl)phenyl)amino)pyrimidin-2-yl)amino)-2-(2-(dimethylamino)-7-azaspiro[3.5]nonan-7-yl)phenyl)-4-(dimethylamino)but-2-enamide] | < 10 nM | 10 to 50 nM | 10 to 50 nM | 10 to 50 nM | 10 to 50 nM |  | 
2 | C=CC(=O)Nc1cc(Nc2ncc(Cl)c(Nc3ccc4nccnc4c3P(C)(C)=O)n2)ccc1N1CCC2(CC1)CC(N(C)C)C2 [Compound 10, N-(5-((5-chloro-4-((5-(dimethylphosphoryl)quinoxalin-6-yl)amino)pyrimidin-2-yl)amino)-2-(2-(dimethylamino)-7-azaspiro[3.5]nonan-7-yl)phenyl)acrylamide] | < 10 nM | < 10 nM | < 10 nM | < 10 nM | 10 to 50 nM |  | 
3 | C=CC(=O)Nc1cc(Nc2ncc(Cl)c(Nc3ccc4ccccc4c3P(C)(C)=O)n2)ccc1N1CCC2(CC1)CC(N(C)C)C2 [Compound 23, N-(5-((5-chloro-4-((1-(dimethylphosphoryl)naphthalen-2-yl)amino)pyrimidin-2-yl)amino)-2-(2-(dimethylamino)-7-azaspiro[3.5]nonan-7-yl)phenyl)acrylamide hydrochloric acid salt] | < 10 nM | < 10 nM | < 10 nM | 10 to 50 nM | 10 to 50 nM |  | 
4 | C=CC(=O)Nc1cc(Nc2ncc(Br)c(Nc3ccc4nccnc4c3P(C)(C)=O)n2)ccc1N(C)CCN(C)C [Compound 34, N-(5-(5-bromo-4-(5-(dimethylphosphoryl)quinoxalin-6-ylamino)pyrimidin-2-ylamino)-2-((2-(dimethylamino)ethyl)(methyl)amino)phenyl)acrylamide] | < 10 nM | < 10 nM | < 10 nM | < 10 nM | < 10 nM |  | 
5 | C=CC(=O)Nc1cc(Nc2ncc(Br)c(Nc3ccc4nccnc4c3P(C)(C)=O)n2)ccc1N1CCC2(CC1)CC(N(C)C)C2 [Compound 35, N-(5-(5-bromo-4-(5-(dimethylphosphoryl)quinoxalin-6-ylamino)pyrimidin-2-ylamino)-2-(2-(dimethylamino)-7-azaspiro[3.5]nonan-7-yl)phenyl)acrylamide] | < 10 nM | < 10 nM | < 10 nM | < 10 nM | < 10 nM |  | 
6 | C=CC(=O)Nc1cc(Nc2ncc(Cl)c(Nc3ccccc3P(C)(C)=O)n2)ccc1N1CCC(N2CCN(C)CC2)CC1 [Compound 16, N-(5-((5-chloro-4-((2-(dimethylphosphoryl)phenyl)amino)pyrimidin-2-yl)amino)-2-(4-(4-methylpiperazin-1-yl)piperidin-1-yl)phenyl)acrylamide] | < 10 nM | 10 to 50 nM | 10 to 50 nM | < 10 nM | 10 to 50 nM | < 10 nM | < 10 nM
7 | C=CC(=O)Nc1cc(Nc2ncc(Cl)c(Nc3ccccc3P(C)(C)=O)n2)ccc1N1CCC2(CC1)CC(N(C)C)C2 [Compound 36, N-(5-((5-chloro-4-((2-(dimethylphosphoryl)phenyl)amino)pyrimidin-2-yl)amino)-2-(2-(dimethylamino)-7-azaspiro[3.5]nonan-7-yl)phenyl)acrylamide] | < 10 nM | < 10 nM | < 10 nM | < 10 nM | < 10 nM | < 10 nM | < 10 nM

Next, values leading:

Row | IC50 [1] | GI50 [2] | GI50 [3] | IC50 [4] | IC50 [5] | IC50 [6] | IC50 [7] | SMILES
8 | < 10 nM | 10 to 50 nM | 10 to 50 nM | < 10 nM | < 10 nM | < 10 nM | < 10 nM | C=CC(=O)Nc1cc(Nc2ncc(Cl)c(Nc3ccccc3P(C)(C)=O)n2)ccc1N(C)CCN(C)C [Compound 15, N-(5-((5-chloro-4-((2-(dimethylphosphoryl)phenyl)amino)pyrimidin-2-yl)amino)-2-((2-(dimethylamino)ethyl)(methyl)amino)phenyl)acrylamide]
9 | < 10 nM | 10 to 50 nM | 10 to 50 nM | 10 to 50 nM | 10 to 50 nM | < 10 nM | < 10 nM | C=CC(=O)Nc1cc(Nc2ncc(Cl)c(Nc3ccccc3P(C)(C)=O)n2)ccc1N1CCN2CCC[C@H]2C1 [Compound 17, (S)—N-(5-((5-chloro-4-((2-(dimethylphosphoryl)phenyl)amino)pyrimidin-2-yl)amino)-2-(hexahydropyrrolo[1,2-a]pyrazin-2(1H)-yl)phenyl)acrylamide]
10 | < 10 nM | 10 to 50 nM | 10 to 50 nM | < 10 nM | < 10 nM | < 10 nM | < 10 nM | C=CC(=O)Nc1cc(Nc2ncc(Cl)c(Nc3ccccc3P(C)(C)=O)n2)ccc1N(C)CCN1CCCC1 [Compound 18, N-(5-((5-chloro-4-((2-(dimethylphosphoryl)phenyl)amino)pyrimidin-2-yl)amino)-2-(methyl(2-(pyrrolidin-1-yl)ethyl)amino)phenyl)acrylamide]
11 | < 10 nM | 10 to 50 nM | < 10 nM | 10 to 50 nM | 10 to 50 nM |  |  | C=CC(=O)Nc1cc(Nc2ncc(Cl)c(Nc3ccc4ncccc4c3P(C)(C)=O)n2)ccc1N1CCC2(CC1)CC(N(C)C)C2 [Compound 30, N-(5-((5-chloro-4-((5-(dimethylphosphoryl)quinolin-6-yl)amino)pyrimidin-2-yl)amino)-2-(2-(dimethylamino)-7-azaspiro[3.5]nonan-7-yl)phenyl)acrylamide]
12 | < 10 nM | < 10 nM | < 10 nM | < 10 nM | < 10 nM | 10 to 100 nM | < 10 nM | C=CC(=O)Nc1cc(Nc2ncc(Cl)c(Nc3ccccc3P(C)(C)=O)n2)ccc1N1CCC2(CCC(N(C)C)CC2)CC1 [Compound 1, N-(5-((5-chloro-4-((2-(dimethylphosphoryl)phenyl)amino)pyrimidin-2-yl)amino)-2-(9-(dimethylamino)-3-azaspiro[5.5]undecan-3-yl)phenyl)acrylamide]
